In ChEMBL document CHEMBL4265897, “Discovery of benzothiazole amides as potent antimycobacterial agents” (Bioorg Med Chem Lett, 2018):
≈ marks a conversion by molar mass, not a printed value. Calls of active or inactive are those of the source. The rule behind the calls is not given here.

Columns and labels:
[1] = test system: Mycobacteroides abscessus; assay: Antimycobacterial activity against Mycobacterium abscessus ATCC 19977 by CLSI method; format: functional
Mycobacterium avium = assay: Antimycobacterial activity against Mycobacterium avium 101 by CLSI method; format: functional
[2] = test system: Mycobacterium intracellulare; assay: Antimycobacterial activity against Mycobacterium intracellulare 1956 by CLSI method; format: functional
[3] = test system: Mycobacteroides abscessus; assay: Antimycobacterial activity against Mycobacterium abscessus 1 by CLSI method; format: functional
[4] = test system: Mycobacteroides abscessus; assay: Antimycobacterial activity against Mycobacterium abscessus 21 by CLSI method; format: functional
[5] = test system: Mycobacteroides abscessus; assay: Antimycobacterial activity against Mycobacterium abscessus 79 by CLSI method; format: functional
[6] = test system: Mycobacteroides abscessus; assay: Antimycobacterial activity against Mycobacterium abscessus 103 by CLSI method; format: functional
[7] = test system: Mycobacteroides abscessus; assay: Antimycobacterial activity against Mycobacterium massiliense 119 by CLSI method; format: functional, Mycobacterium abscessus subsp. massiliense
Mycobacteroides chelonae = assay: Antimycobacterial activity against Mycobacterium chelonae 93 by CLSI method; format: functional
[8] = test system: Mycolicibacterium fortuitum; assay: Antimycobacterial activity against Mycobacterium fortuitum 41 by CLSI method; format: functional
[9] = test system: Mycolicibacterium peregrinum; assay: Antimycobacterial activity against Mycobacterium peregrinum ATCC 700686 by CLSI method; format: functional
[10] = test system: Mycobacterium tuberculosis; assay: Antimycobacterial activity against Mycobacterium tuberculosis H37Rv MC2 6206 by CLSI method; format: functional
CYP2B6 = target: T1, CYP2B6 (Homo sapiens, UniProt P20813); assay: Inhibition of CYP2B6 (unknown origin) at 10 uM; format: ADME
T1 sequence (P20813 whole entry): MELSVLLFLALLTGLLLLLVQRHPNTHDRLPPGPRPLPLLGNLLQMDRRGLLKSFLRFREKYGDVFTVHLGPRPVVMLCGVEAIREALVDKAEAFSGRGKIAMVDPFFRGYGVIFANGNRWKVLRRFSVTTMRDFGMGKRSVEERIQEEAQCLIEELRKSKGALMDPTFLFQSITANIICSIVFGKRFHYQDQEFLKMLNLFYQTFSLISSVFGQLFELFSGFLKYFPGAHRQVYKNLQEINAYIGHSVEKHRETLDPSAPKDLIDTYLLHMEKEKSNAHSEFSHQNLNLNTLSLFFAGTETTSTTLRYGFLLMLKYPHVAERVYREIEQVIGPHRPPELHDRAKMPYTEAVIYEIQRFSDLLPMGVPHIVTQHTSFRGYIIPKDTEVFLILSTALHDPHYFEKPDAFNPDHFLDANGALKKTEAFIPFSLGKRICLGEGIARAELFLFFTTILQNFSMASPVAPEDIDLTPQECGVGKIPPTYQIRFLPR

CYP3A4 = CYP3A4 (Homo sapiens, UniProt P08684); assay: Inhibition of CYP3A4 (unknown origin) at 10 uM; format: ADME
CYP3A4, sequence (P08684 whole entry): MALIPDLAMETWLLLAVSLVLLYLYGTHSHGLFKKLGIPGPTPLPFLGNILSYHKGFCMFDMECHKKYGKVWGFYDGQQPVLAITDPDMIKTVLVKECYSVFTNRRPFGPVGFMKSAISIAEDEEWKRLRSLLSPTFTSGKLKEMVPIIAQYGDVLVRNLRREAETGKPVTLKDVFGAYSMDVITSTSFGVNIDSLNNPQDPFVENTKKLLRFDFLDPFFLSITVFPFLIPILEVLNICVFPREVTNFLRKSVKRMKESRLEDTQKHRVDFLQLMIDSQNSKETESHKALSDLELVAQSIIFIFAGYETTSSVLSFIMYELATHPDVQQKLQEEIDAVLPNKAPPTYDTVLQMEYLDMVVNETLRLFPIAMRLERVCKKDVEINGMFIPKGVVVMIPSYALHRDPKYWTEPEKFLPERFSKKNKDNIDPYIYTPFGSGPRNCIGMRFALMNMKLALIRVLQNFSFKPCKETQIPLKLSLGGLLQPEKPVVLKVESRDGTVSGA

Cytochrome P450 2B6 = target: T2, Cytochrome P450 2B6 (Homo sapiens, UniProt P20813); assay: Inhibition of CYP2B6 (unknown origin); format: ADME
T2 sequence (P20813 whole entry): T1 sequence (P20813 whole entry)

Cytochrome P450 2C8 = target: T3, Cytochrome P450 2C8 (Homo sapiens, UniProt P10632); assay: Inhibition of CYP2C8 (unknown origin); format: ADME
T3 sequence (P10632 whole entry): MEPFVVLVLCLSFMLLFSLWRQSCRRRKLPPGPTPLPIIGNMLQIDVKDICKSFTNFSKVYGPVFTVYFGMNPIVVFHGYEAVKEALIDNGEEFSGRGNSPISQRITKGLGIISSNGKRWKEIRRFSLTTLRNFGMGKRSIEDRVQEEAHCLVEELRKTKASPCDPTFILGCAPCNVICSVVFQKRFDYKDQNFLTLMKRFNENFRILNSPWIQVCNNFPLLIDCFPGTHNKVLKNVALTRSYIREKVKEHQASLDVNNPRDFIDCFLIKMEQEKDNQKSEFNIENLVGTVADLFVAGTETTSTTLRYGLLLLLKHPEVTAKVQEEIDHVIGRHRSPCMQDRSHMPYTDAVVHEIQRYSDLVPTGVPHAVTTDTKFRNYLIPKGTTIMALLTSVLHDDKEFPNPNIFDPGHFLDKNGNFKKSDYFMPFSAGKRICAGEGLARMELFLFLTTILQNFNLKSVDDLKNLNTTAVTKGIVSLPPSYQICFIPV

Cytochrome P450 2C9 = Cytochrome P450 2C9 (Homo sapiens, UniProt P11712); assay: Inhibition of CYP2C9 (unknown origin); format: ADME
Cytochrome P450 2C9, sequence (P11712 whole entry): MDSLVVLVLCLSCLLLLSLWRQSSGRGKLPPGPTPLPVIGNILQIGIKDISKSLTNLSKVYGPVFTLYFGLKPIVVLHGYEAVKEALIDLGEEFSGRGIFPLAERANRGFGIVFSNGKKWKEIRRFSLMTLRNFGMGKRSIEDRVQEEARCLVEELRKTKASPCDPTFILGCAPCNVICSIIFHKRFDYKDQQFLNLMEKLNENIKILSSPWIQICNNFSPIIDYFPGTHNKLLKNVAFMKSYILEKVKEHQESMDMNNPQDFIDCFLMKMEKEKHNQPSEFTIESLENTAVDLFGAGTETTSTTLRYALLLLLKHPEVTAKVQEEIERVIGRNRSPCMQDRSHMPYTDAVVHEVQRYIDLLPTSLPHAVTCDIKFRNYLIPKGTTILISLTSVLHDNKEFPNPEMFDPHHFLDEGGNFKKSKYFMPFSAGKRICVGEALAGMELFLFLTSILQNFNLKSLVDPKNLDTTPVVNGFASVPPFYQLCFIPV

Cytochrome P450 2C19 = Cytochrome P450 2C19 (Homo sapiens, UniProt P33261); assay: Inhibition of CYP2C19 (unknown origin); format: ADME
Cytochrome P450 2C19, sequence (P33261 whole entry): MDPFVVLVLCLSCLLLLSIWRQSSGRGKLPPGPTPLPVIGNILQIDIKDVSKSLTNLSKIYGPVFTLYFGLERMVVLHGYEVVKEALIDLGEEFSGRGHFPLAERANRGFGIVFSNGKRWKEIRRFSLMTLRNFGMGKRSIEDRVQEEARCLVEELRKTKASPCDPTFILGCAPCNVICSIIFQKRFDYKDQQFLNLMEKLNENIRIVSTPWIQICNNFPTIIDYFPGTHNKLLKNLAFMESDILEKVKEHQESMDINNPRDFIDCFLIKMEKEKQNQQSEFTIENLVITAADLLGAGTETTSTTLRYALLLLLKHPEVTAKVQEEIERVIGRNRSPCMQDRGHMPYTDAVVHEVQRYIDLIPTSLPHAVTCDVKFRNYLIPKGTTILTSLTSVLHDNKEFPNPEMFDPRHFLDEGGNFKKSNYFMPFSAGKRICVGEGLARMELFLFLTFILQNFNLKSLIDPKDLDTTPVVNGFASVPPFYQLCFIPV

Cytochrome P450 2D6 = Cytochrome P450 2D6 (Homo sapiens, UniProt P10635); assay: Inhibition of CYP2D6 (unknown origin); format: ADME
Cytochrome P450 2D6, sequence (P10635 whole entry): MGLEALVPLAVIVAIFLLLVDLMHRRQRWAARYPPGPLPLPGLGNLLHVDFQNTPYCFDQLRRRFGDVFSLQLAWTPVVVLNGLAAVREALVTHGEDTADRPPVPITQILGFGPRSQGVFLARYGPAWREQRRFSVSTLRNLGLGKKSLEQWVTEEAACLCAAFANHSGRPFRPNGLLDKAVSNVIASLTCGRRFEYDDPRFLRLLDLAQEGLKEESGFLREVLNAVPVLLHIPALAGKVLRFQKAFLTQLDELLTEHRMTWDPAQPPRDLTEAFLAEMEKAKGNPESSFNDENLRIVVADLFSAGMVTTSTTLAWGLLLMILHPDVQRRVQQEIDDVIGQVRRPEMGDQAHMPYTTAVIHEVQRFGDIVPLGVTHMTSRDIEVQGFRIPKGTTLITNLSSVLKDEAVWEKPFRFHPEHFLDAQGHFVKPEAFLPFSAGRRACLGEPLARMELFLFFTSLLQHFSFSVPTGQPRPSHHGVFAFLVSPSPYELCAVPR

Cytochrome P450 3A4 [11] = target: T4, Cytochrome P450 3A4 (Homo sapiens, UniProt P08684); assay: Inhibition of CYP3A4 (unknown origin) using midazolam as substrate; format: ADME
T4 sequence (P08684 whole entry): as the sequence (P08684 whole entry) above

Cytochrome P450 3A4 [12] = target: T4, Cytochrome P450 3A4; assay: Inhibition of CYP3A4 (unknown origin) using testosterone as substrate; format: ADME
[13] = Protein binding in human serum; format: ADME, cell-free; details: read-out: PB
[14] = Oral bioavailability in mouse at 100 mg/kg; format: ADME, organism-based; details: in vivo
[15] = Clearance in mouse plasma at 10 mg/kg, iv; format: ADME, organism-based
RBCs = assay: Hemolytic activity in RBC (unknown origin) at 128 ug/ml; format: ADME, cell-based; details: erythrocyte
[16] = Solubility of the compound; format: physicochemical
[17] = test system: Mycobacteroides abscessus; assay: Antimycobacterial activity against Mycobacterium abscessus assessed as reduction in viable colony forming unit after 5 days by time-kill assay relative to control; format: functional
[18] = test system: Mycobacteroides abscessus; assay: Bacteriostatic activity against Mycobacterium abscessus assessed as reduction in viable colony forming unit after 3 days by time-kill assay; format: functional, organism-based

| Compound | MIC [1] [µg/mL] | MIC (Mycobacterium avium) [µg/mL] | MIC [2] [µg/mL] | MIC [3] [µg/mL] | MIC [4] [µg/mL] | MIC [5] [µg/mL] | MIC [6] [µg/mL] | MIC [7] [µg/mL] | MIC (Mycobacteroides chelonae) [µg/mL] | MIC [8] [µg/mL] | MIC [9] [µg/mL] | MIC [10] [µg/mL] | other results |
| --- | --- | --- | --- | --- | --- | --- | --- | --- | --- | --- | --- | --- | --- |
| CC1CC(C(=O)Nc2nc3ccc(SC(F)(F)F)cc3s2)CC(C)(C)C1 (stereo not drawn) | 16 (≈ 39.8 µM) | > 64 | > 64 | 2 (≈ 4.97 µM) | 0.5 (≈ 1.24 µM) | 64 (≈ 159 µM) | 0.5 (≈ 1.24 µM) | 0.25 (≈ 0.621 µM) | 0.12 (≈ 0.298 µM) | > 64 | 8 (≈ 19.9 µM) |  |  |
| O=C(Nc1nc2ccc(OC(F)(F)F)cc2s1)C1CCCCC1 | 32 (≈ 92.9 µM) | > 64 | > 64 | > 64 | 16 (≈ 46.5 µM) | > 64 | > 64 | > 64 | > 64 | > 64 | > 64 | 64 (≈ 186 µM) |  |
| CC12CCCC(C(=O)Nc3nc4cc(Cl)cc(Cl)c4s3)(CCC1)C2 |  | 2 (≈ 5.22 µM) | 2 (≈ 5.22 µM) | 0.06 (≈ 0.157 µM) | 0.03 (≈ 0.0783 µM) | 0.03 (≈ 0.0783 µM) | 0.03 (≈ 0.0783 µM) | 0.03 (≈ 0.0783 µM) | 0.03 (≈ 0.0783 µM) | 0.06 (≈ 0.157 µM) | 0.03 (≈ 0.0783 µM) | ≤ 0.12 | inhibition at 10 µM (CYP2B6): > 50%; inhibition at 10 µM (CYP3A4): > 50% |
| CC1CC(C)CC(C(=O)Nc2nc3ccc(C(F)(F)F)cc3s2)C1 (stereo not drawn) |  | > 64 | > 64 | 2 (≈ 5.61 µM) | 1 (≈ 2.81 µM) | 2 (≈ 5.61 µM) | 0.25 (≈ 0.701 µM) | 0.5 (≈ 1.4 µM) | 1 (≈ 2.81 µM) | 1 (≈ 2.81 µM) | 0.25 (≈ 0.701 µM) | 4 (≈ 11.2 µM) | IC50 (Cytochrome P450 2B6): > 20 µM; IC50 (Cytochrome P450 2C8): > 20 µM; IC50 (Cytochrome P450 2C9): > 20 µM; IC50 (Cytochrome P450 2C19): > 20 µM; IC50 (Cytochrome P450 2D6): 1.4 µM; IC50 (Cytochrome P450 3A4 [11]): > 20 µM; IC50 (Cytochrome P450 3A4 [12]): > 20 µM; fraction unbound [13]: < 0.01; bioavailability [14]: 53%; clearance [15]: 28.3 mL/min/kg; Activity (RBCs): Non-Toxic; solubility [16]: Insoluble |
| CC1CC(C(=O)Nc2nc3ccc(Cl)cc3s2)CC(C)(C)C1 (stereo not drawn) |  | 16 (≈ 47.5 µM) | 4 (≈ 11.9 µM) | 0.5 (≈ 1.48 µM) | 0.25 (≈ 0.742 µM) | 0.25 (≈ 0.742 µM) | 0.25 (≈ 0.742 µM) | 0.5 (≈ 1.48 µM) | 0.25 (≈ 0.742 µM) | 0.25 (≈ 0.742 µM) | 0.12 (≈ 0.356 µM) | 4 (≈ 11.9 µM) | IC50 (Cytochrome P450 2B6): 14.9 µM; IC50 (Cytochrome P450 2C8): > 20 µM; IC50 (Cytochrome P450 2C9): > 20 µM; IC50 (Cytochrome P450 2C19): 15.5 µM; IC50 (Cytochrome P450 2D6): 0.2 µM; IC50 (Cytochrome P450 3A4 [11]): > 20 µM; IC50 (Cytochrome P450 3A4 [12]): > 20 µM; fraction unbound [13]: < 0.01; Activity (RBCs): Non-Toxic; solubility [16]: Insoluble |
| O=C(Nc1nc2ccc(C(F)(F)F)cc2s1)C1CCC2(CC1)CC2 | 32 (≈ 90.3 µM) | 64 (≈ 181 µM) | > 64 | 8 (≈ 22.6 µM) | 16 (≈ 45.1 µM) | 16 (≈ 45.1 µM) |  | 8 (≈ 22.6 µM) | 4 (≈ 11.3 µM) | > 64 | > 64 | 32 (≈ 90.3 µM) |  |
| CC12CC3CC(C)(C1)CC(C(=O)Nc1nc4ccc(OC(F)(F)F)cc4s1)(C3)C2 | 0.25 (≈ 0.589 µM) | 2 (≈ 4.71 µM) | 1 (≈ 2.36 µM) | 0.25 (≈ 0.589 µM) | 0.25 (≈ 0.589 µM) | 0.25 (≈ 0.589 µM) | 0.25 (≈ 0.589 µM) | 0.25 (≈ 0.589 µM) | 0.25 (≈ 0.589 µM) | 0.25 (≈ 0.589 µM) | 0.12 (≈ 0.283 µM) | 1 (≈ 2.36 µM) | Activity [17]: 2 deltalog10CFU; Activity [18]: Active |
| CC12CCCC(C(=O)Nc3nc4ccc(OC(F)(F)F)cc4s3)(CCC1)C2 |  | 2 (≈ 5.02 µM) | 2 (≈ 5.02 µM) | 0.06 (≈ 0.151 µM) | 0.06 (≈ 0.151 µM) | 0.06 (≈ 0.151 µM) | 0.12 (≈ 0.301 µM) | 0.06 (≈ 0.151 µM) | 0.06 (≈ 0.151 µM) | 0.5 (≈ 1.25 µM) | 0.06 (≈ 0.151 µM) | 1 (≈ 2.51 µM) | inhibition at 10 µM (CYP2B6): > 50%; inhibition at 10 µM (CYP3A4): > 50% |
